Holding throughout (type): in vivo
One assay relates to Puccinia recondita. The experiment in a line: Greenhouse, Puccinia recondita on wheat, 1 day residual. The following applies: for pest or weed control at 1 ppm / pest or weed control at 0.06 ppm / pest or weed control at 0.25 ppm / pest or weed control at 4 ppm: Puccinia recondita, read-out: Observed Efficacy. From the text: (§1) The fungicides are applied in single treatments, or in a combination comprising an azolopyrimidine of formula I and a compound selected from the classes (A), (B) and (C) as defined above. The compounds are applied in form of an aqueous spray mix obtained from a concentrated formulation or the technical material.
(§2) 1. Seed is planted in 6 cm diameter plastic pots and maintained in the greenhouse.
(§3) 2. When the primary leaf is fully expanded in the case of cereals or several leaves are present in the case of dicots, formulated test compounds are sprayed with a three nozzle overhead fungicide sprayer to near run-off. Alternatively, a single nozzle overhead track sprayer is used for application of the compounds to cereals at a rate of 200 l/ha. Plants are then allowed to air-dry.
(§4) 3. Inoculation precedes treatment in the case of curative evaluations and follows treatment in case of residual evaluations. For inoculation of powdery mildew disease, plants are set up on greenhouse benches with bottom watering mats and inoculated by dusting them with conidia from infected plants. Between inoculation and treatment for curative evaluations and between treatment and inoculation for residual evaluations, plants are maintained in the greenhouse with bottom watering.
For inoculation of non-powdery mildew diseases, an aqueous spore suspension of the pathogen is applied to the plant and the plants are kept 1-2 days in a moist infection chamber before being returned to the greenhouse where they are maintained by bottom watering.
(§5) 4. Disease on the foliage as percent leaf area with disease symptoms/signs is evaluated about 7 days after inoculation. In the case of wheat, the tips and bases of the leaves are excluded from the evaluation. [formula]
(§6) 1. Technical compounds are formulated in a solvent/surfactant system consisting of 5% acetone and 0.05% Tween 20 in deionized water. Compounds are dissolved in acetone prior to addition of the water; the Tween 20 can be added through either the acetone or the water. Dilutions are made using the solvent/surfactant system. Formulated compounds are prepared using deionized water.
(§7) 2. Two kinds of controls are included: Plants treated with the solvent/surfactant solution and inoculated (Solvent Blank). Untreated plants which are inoculated (Inoculated Control).
(§8) Assessments of the diseases took place at the indicated day after the application of the compounds. Per cent infected leaf area infected was evaluated. The efficacy of the compounds/compounds mixtures to control the diseases was calculated by using the formula given above under item 4: […]
(§9) Synergy was calculated using the % disease control values of specific treatments for the two COLBY formula given hereinabove
Fungicidal efficacy of the mixture of Azolopyrimidine C+metconazole (1 day residual) against Puccinia recondita on wheat The tank mix was obtained from a SC formulation containing 100 g Azolopyrimidine C per liter and an EC containing 100 g metconazole per liter. […]
Fungicidal efficacy of the mixture of Azolopyrimidine C+fluazinam (1 day residual) against Puccinia recondita on wheat The tank mix was obtained from technical material of Azolopyrimidine C and a SC formulation containing 500 g fluazinam per liter. […]

In assay [1] the test system is Blumeria graminis. In words: Greenhouse, Blumeria graminis on wheat, 1 day residual.
From the text: as §1, §2, §3, §4, §5, §6, §7, §8, §9
Fungicidal efficacy of the mixture of Azolopyrimidine C+quinoxyfen (1 day residual)) against Blumeria graminis on wheat The tank mix was obtained from technical material of Azolopyrimidine C and quinoxyfen.
Fungicidal efficacy of the mixture of Azolopyrimidine C+metalaxyl (1 day residual) against Blumeria graminis on wheat The tank mix was obtained from technical material of Azolopyrimidine C and metalaxyl.
Fungicidal efficacy of the mixture of Azolopyrimidine C+famoxadone (1 day residual) against Blumeria graminis on wheat The tank mix was obtained from technical material of Azolopyrimidine C and famoxadone.

Another assay has as its system Botrytis cinerea. In words: Apple fruit Botrytis test, Botrytis cinerea on apple fruits, 3 day residual. The method, then: 1. Apples (Malus X domestica Borkh.) variety Golden Delicious are disinfected by washing them briefly in 70% ethanol. After drying the apples are marked with four short equal-distant lines indicating the positions to be wounded.
2. Corresponding with the marks, four holes are poked around the apple equator with a pipette tip. 10 μl of the treatment solution are pipetted into each hole.
3. Three hours after application, 10 μl of a conidial suspension of Botrytis cinerea are pipetted into each. For incubation, the treated/inoculated apples are set up for five days.
4. Disease occurs as rotten apple tissue surrounding the inoculated wounds. The diameter of the rotten zone around each wound is measured.
1. Technical compounds are formulated in a solvent system consisting of 5% acetone and 0.05% Tween 20 in deionized water. Compounds are dissolved in acetone prior to dilution with water. Formulated compounds are prepared using deionized water.
2. Three kinds of controls are included:
Assessments of the diseases took place at the indicated day after the application of the compounds. Per cent infected leaf area infected was evaluated. The efficacy of the compounds/compounds mixtures to control the diseases was calculated by using the formula: [formula]
as §9
Fungicidal efficacy of the mixture of Azolopyrimidine A+vinclozolin (3 day residual) against Botrytis cinerea on apple fruits The tank mix was obtained from technical material of Azolopyrimidine A and a WG formulation containing 500 g vinclozolin per kg.
Fungicidal efficacy of the mixture of Azolopyrimidine A+cyprodinil (3 day residual) against Botrytis cinerea on apple fruits The tank mix was obtained from technical material of Azolopyrimidine A and a WG formulation containing 750 g cyprodinil per kg.
Fungicidal efficacy of the mixture of Azolopyrimidine A+benomyl (3 day residual) against Botrytis cinerea on apple fruits The tank mix was obtained from technical material of Azolopyrimidine A and a WP formulation containing 500 g benomyl per kg.

In assay [2] the test system is Blumeria graminis. The experiment in a line: Greenhouse, Blumeria graminis on barley, 2 days curative. As to conditions: Example 26. The method, then: The trials are carried out under greenhouse (Examples 1 to 32) or field conditions (Examples 33 to 40) in residual or curative applications. The fungicides are applied in single treatments, or in a combination comprising an azolopyrimidine of formula I and a compound selected from the classes (A), (B) and (C) as defined above. The compounds are applied in form of an aqueous spray mix obtained from a concentrated formulation or the technical material.
as §2, §3, §4, §5, §6, §7, §8, §9
Fungicidal efficacy of the mixture of (S)-Azolopyrimidine C in admixture with Fenhexamid (2 days curative) against Blumeria graminis on barley. The tank mixes were obtained from technical material of (S)-Azolopyrimidine C and Fenhexamid.
Fungicidal efficacy of the mixture of (S)-Azolopyrimidine C in admixture with Azoxystrobin or Trifloxystrobin (2 days curative) against Blumeria graminis on barley. The tank mixes were obtained from technical material of (S)-Azolopyrimidine C and Azoxystrobin or Trifloxystrobin.

Like-named read-outs stand apart in the source and are kept apart here.

Take `S1SSSSSSS1` [sulfur]: the pest or weed control at 1 ppm with Puccinia recondita (Example 22, dose rate 1 ppm) is 0%.
For `COCC(=O)N(c1c(C)cccc1C)C(C)C(=O)OC` (centres unmarked) [metalaxyl], the “Observed Efficacy” value with Blumeria graminis [1] (Example 17, dose rate 0.06 ppm) came out at 0%; in the assay on Blumeria graminis [1] (Example 17, dose rate 0.25 ppm), 0%; in the assay with Blumeria graminis [1] (Example 17, dose rate 1 ppm), 0%; in the assay with Blumeria graminis [1] (Example 17, dose rate 4 ppm), 0%.
`CCCCNC(=O)n1c(NC(=O)OC)nc2ccccc21` [benomyl]: the “Observed Efficacy” value with Botrytis cinerea (Example 6, dose rate 1 ppm) is given as 0%; with Botrytis cinerea (Example 6, dose rate 10 ppm) it was 13%.
Consider `C[C@@]1(c2ccc(Oc3ccccc3)cc2)OC(=O)N(Nc2ccccc2)C1=O` (racemic) [famoxadone], for which the pest or weed control at 0.06 ppm with Puccinia recondita (Example 19, dose rate 0.06 ppm) came out at 0%. Moreover, the pest or weed control at 0.25 ppm in the assay with Puccinia recondita (Example 19, dose rate 0.25 ppm) came to 0%. Further, the pest or weed control at 1 ppm in the assay on Puccinia recondita (Example 19, dose rate 1 ppm) amounted to 31%. Besides, in the assay on Puccinia recondita (Example 19, dose rate 4 ppm), the pest or weed control at 4 ppm was determined as 61%. Besides, the “Observed Efficacy” value with Blumeria graminis [1] (Example 18, dose rate 0.06 ppm) is 0%; in the assay on Blumeria graminis [1] (Example 18, dose rate 0.25 ppm), 0%; with Blumeria graminis [1] (Example 18, dose rate 1 ppm), 0%; with Blumeria graminis [1] (Example 18, dose rate 4 ppm), 0%.
Regarding `CC1=C(C(=O)Nc2ccccc2)SCCO1` [carboxin], in the assay with Puccinia recondita, the pest or weed control at 0.06 ppm stood at 0%, the pest or weed control at 0.25 ppm was determined as 0%, the pest or weed control at 1 ppm was determined as 0% and the pest or weed control at 4 ppm stood at 4%.
In the case of `C=CC1(C)OC(=O)N(c2cc(Cl)cc(Cl)c2)C1=O` (centres unmarked) [vinclozolin], the “Observed Efficacy” value in the assay with Botrytis cinerea (Example 4, dose rate 10 ppm) is given as 8%; with Botrytis cinerea (Example 7, dose rate 1 ppm), 0%; in the assay with Botrytis cinerea (Example 7, dose rate 10 ppm) it was 17%.
For the compound `Fc1ccc(Oc2ccnc3cc(Cl)cc(Cl)c23)cc1` [quinoxyfen], the pest or weed control at 0.06 ppm with Puccinia recondita (Example 15, dose rate 0.06 ppm) came to 0%. For the same compound, in the assay with Puccinia recondita (Example 15, dose rate 0.25 ppm), the pest or weed control at 0.25 ppm was determined as 0%. In addition, the pest or weed control at 1 ppm with Puccinia recondita (Example 15, dose rate 1 ppm) came to 0%. Further, the pest or weed control at 4 ppm in the assay with Puccinia recondita (Example 15, dose rate 4 ppm) turned out to be 0%. Also, the “Observed Efficacy” value with Blumeria graminis [1] (Example 16, dose rate 0.06 ppm) was found to be 8%; with Blumeria graminis [1] (Example 16, dose rate 0.25 ppm), 18%; in the assay with Blumeria graminis [1] (Example 16, dose rate 1 ppm) it was 73%; with Blumeria graminis [1] (Example 16, dose rate 4 ppm) it was 99%.
On to `CC1(C(=O)Nc2ccc(O)c(Cl)c2Cl)CCCCC1` [Fenhexamid], for which the “Observed Efficacy” value is recorded as 0% in the assay with Blumeria graminis [2] (dose rate 0.74 ppm); 0% with Blumeria graminis [2] (dose rate 2.2 ppm); 0% in the assay with Blumeria graminis [2] (dose rate 6.7 ppm); 1% in the assay on Blumeria graminis [2] (dose rate 20 ppm); 7% with Blumeria graminis [2] (dose rate 60 ppm); 39% with Blumeria graminis [2] (dose rate 180 ppm).
Consider `O=[N+]([O-])c1cc(C(F)(F)F)c(Cl)c([N+](=O)[O-])c1Nc1ncc(C(F)(F)F)cc1Cl` [fluazinam], for which, in the assay with Puccinia recondita (Example 14, dose rate 0.06 ppm), the pest or weed control at 0.06 ppm was 0%. The pest or weed control at 1 ppm in the assay on Puccinia recondita (Example 14, dose rate 1 ppm) came to 4%. In addition, in the assay on Puccinia recondita (Example 14, dose rate 4 ppm), the pest or weed control at 4 ppm worked out at 17%.
Consider `CCCCCCCCCCCCNC(=N)N` [dodine], for which the pest or weed control at 0.06 ppm with Puccinia recondita is 0%.
Turning to `[Cl-].[Cu+2].[Cu+2].[OH-].[OH-].[OH-]` [copper oxychloride], the “Observed Efficacy” value in the assay with Puccinia recondita (Example 21, dose rate 0.06 ppm) came out at 0%.

For the origin of these results see patent US20030206968A1, “Fungicidal mixtures” (priority 1999, published 2003).
